For data set [1] the following is noted: literature values; cited from earlier work.
Another data set concerns LoVo-OXP cells. In words: Cellular platinum uptake by GF-AAS. It is filed as cell-based, human. The note with it: LoVo-OXP resistant cells, 5 μM, 6, 24, 48 h, FIG. 2 panel B, compared with LoVo. On the procedure: LoVo and LoVo-OXP cells (2×10^6) were seeded in 75 cm^2 flasks in growth medium (20 ml). After 24 h, the medium was replaced and the cells incubated for different times (6, 24 or 48 h) in the presence of the tested complexes. Cell monolayers were washed twice with cold PBS and harvested. Samples were subjected to three freezing/thawing cycles at −80° C., and then vigorously vortexed. Aliquots were removed for the determination of protein content by the BioRad protein assay (BioRad). The samples were treated with 1 mL of highly pure nitric acid (Pt: ≦0.01 μg×kg^−1, TraceSELECT® Ultra, Sigma Chemical Co.) and transferred into a microwave teflon vessel. Subsequently, samples were submitted to a standard procedure using a speed wave MWS-3 Berghof instrument (Eningen, Germany). After cooling, each mineralized sample was analyzed for platinum by using a Varian AA Duo graphite furnace atomic absorption spectrometer (Varian, Palo Alto, Calif.; USA) at the wavelength of […]. The calibration curve was obtained using known concentrations of standard solutions purchased from Sigma Chemical Co.
It is well-known that cellular uptake is an important factor influencing drug efficacy. […] The intracellular platinum was quantified by means of GF-AAS analysis and the results, expressed as μg metal mg^−1 of cellular proteins, are summarized in FIG. 2.

The test system of data set [2] is Lewis lung carcinoma (LLC). In words: In vivo anticancer activity toward Lewis lung carcinoma. Further details: species or system C57BL mice. The note with it: daily dose i.p. 1.5 mg kg^−1 from day 9; day 15. On the procedure:
All studies involving animal testing were carried out in accordance with the ethical guidelines for animal research adopted by the University of Padua, acknowledging the Italian regulation and the European Directive 86/609/EEC as to animal welfare and protection and the related codes of practice. The mice were purchased from Charles River, Italy, and housed in steel cages under controlled environmental conditions (constant temperature, humidity, and 12 h dark/light cycle) and alimented with commercial standard feed and tap water ad libitum. Animals were observed daily, and body weight and food intake recorded. The Lewis lung carcinoma (LLC) cell line was purchased from ECACC, UK. The LLC cell line was maintained in D-MEM (Euroclone) supplemented with 10% heat-inactivated FBS (Euroclone), 10 mM L-glutamine, 100 U mL^−1 penicillin, and 100 μg mL^−1 streptomycin in a 5% CO2 air incubator at 37° C.
The Lewis lung carcinoma (LLC) was implanted i.m. as a 2×10^6 cell inoculum into the right hind leg of 8-week old male and female C57BL mice (24±3 g body weight). […] At day 15, animals were sacrificed, the legs were amputated at the proximal end of the femur, and the inhibition of tumor growth was determined according to the difference in weight of the tumor-bearing leg and the healthy leg of the animals expressed as % referred to the control animals. Body weight was measured every two days and was taken as a parameter for systemic toxicity.
All the values are the means±S.D. of not less than three measurements. Multiple comparisons were made by Tukey-Kramer test (**p<0.01; *p or °p<0.05).
The in vivo antitumor activity of compound 1 was evaluated in a model of solid tumor, the syngeneic murine Lewis lung carcinoma (LLC). […] For the assessment of the adverse side effects, changes in body weights of tumor-bearing mice were monitored daily (FIG. 3).

Data set [3] concerns LoVo MDR multidrug resistant colon carcinoma subline. In words: MTT cytotoxicity assay, cross-resistance profile. The class given is cell-based, human. From the text: (§1) Human breast (MCF-7) and colon (HCT-15, DDL1, SW480 and CaCo-2) carcinoma cell lines along with melanoma (A375) were obtained from the American Type Culture Collection (ATCC, Rockville, Md.). A431 are human cervical carcinoma cells kindly provided by Prof. F. Zunino (Molecular Pharmacology Unit, Experimental Oncology and Molecular Medicine, Istituto Nazionale dei Tumori, Milan, Italy). […] G. Marverti (Dept. of Biomedical Science, University of Modena, Italy). LoVo human colon-carcinoma cell line and its multidrug-resistant sublime (LoVo MDR) were kindly provided by Prof F. Maj one (Department of Biology of Padova University, Italy). […] Cell lines were maintained in the logarithmic phase at 37° C. in a 5% carbon dioxide atmosphere using the following culture media containing 10% fetal calf serum (Euroclone, Milan, Italy), antibiotics (50 units mL^−1 penicillin and 50 μg mL^−1 streptomycin), and 2 mM L-glutamine in: i) RPMI-1640 medium (Euroclone) for MCF-7, HCT-15, A431, DLD 1, 2008, and C13* cells; ii) F-12 HAM'S (Sigma Chemical Co.) for LoVo, LoVo MDR, and LoVo-OXP cells; iii) DMEM for A375 and SW 480 cells; and iv) MEM for CaCo-2 cells.
(§2) The growth inhibitory effect towards tumor cell lines was evaluated by means of the MTT (3-(4,5-dimethylthiazol-2-yl)-2,5-diphenyltetrazolium bromide) assay (Alley, M. C., et al., Cancer Res. 1988, 48, 589-601).
(§3) Briefly, depending upon the growth characteristics of the cell line, 3-8×10^3 cells well^−1, were seeded in 96-well microplates in growth medium (100 μL) and then incubated at 37° C. in a 5% carbon dioxide atmosphere. After 24 h, the medium was removed and replaced with a fresh one containing the compound to be studied, at the appropriate concentration, dissolved in 0.9% sodium chloride solution just before use. Triplicate cultures were established for each treatment. After 72 h, each well was treated with […] of a 5 mg mL^−1 MTT saline solution and, after 5 h of incubation, 100 μL of a sodium dodecylsulfate (SDS) solution in 0.01 M HCl were added. After an overnight incubation, the inhibition of cell growth induced by the tested complexes was determined by measuring the absorbance of each well at 570 nm using a BioRad 680 microplate reader. Mean absorbance for each drug dose was expressed as percentage of the control and plotted vs. drug concentration. Dose-response curves were fitted and IC50 values were calculated with four parameter logistic model (4PL).
(§4) A LoVo cell line retaining a multidrug resistance phenotype was also considered (LoVo MDR). Cross-resistance profiles were evaluated by means of the resistance factor (RF), which is defined as the ratio between the IC50 value for the resistant cells and that arising from the sensitive cells (Table 2).
In Table 2 are also reported the results obtained in a multidrug resistant (MDR) colon carcinoma subline, LoVo MDR, in which the resistance to doxorubicin, a drug belonging to the MDR spectrum, is associated with an overexpression of multi-specific drug transporters, such as the 170 kDa P-glycoprotein (P-gp) (Wersinger, C., et al., Amino Acids 2000, 19, 667-685). It is well known that acquired MDR, whereby cells become refractory to multiple drugs, poses most important challenge to the success of anticancer chemotherapy.
(Tetrazolium assays rely on reduction of a dye to a coloured formazan, in cell work by metabolically active cells.)

Data set [4] has as its system 2008 ovarian cancer cells. In words: MTT cytotoxicity assay, cross-resistance profile. The class given is cell-based, human. The note with it: 72 h.
Description: as §1, §2, §3, §4

Data set [5] relates to LoVo-OXP oxaliplatin resistant colon cancer cells. In words: MTT cytotoxicity assay, cross-resistance profile. The class given is cell-based, human.
Description: as §1, §2, §3, §4

The subject of data set [6] is C13* cisplatin resistant ovarian cancer cells. In words: MTT cytotoxicity assay, cross-resistance profile. The class given is cell-based, human.
Description: as §1, §2, §3, §4

Another data set deals with MCF-7. Kind of data set: MTT cytotoxicity assay, 72 h. The settings on record: MCF-7, breast. The class given is cell-based, human.
Description: as §1, §2, §3
(§5) Compound 1 was prepared for the first time almost twenty years ago however, until now, it had been tested (both in vitro and in vivo) only in a limited number of tumor cell lines (Hoeschele, J. D., et al., J. Med. Chem. 1994, 37, 2630-2636 and Shamsuddin, S., et al., J. Inorg. Biochem. 1996, 61, 291-301). The Pt(II) and Pt(IV) complexes containing isomeric forms of diaminocyclohexane, [PtCl2(cis-1,4-DACHA](1), [PtCl2(1R,2R-DACH)] (2), [Pt(OXA)(cis-1,4-DACH)] (3), cis,trans,cis-[Pt^IVCl2(OH)2(cis-1,4-DACH)] (4), cis,trans,cis-[Pt^IVCl2(DCA)2(cis-1,4-DACH)] (5), [Pt(CBDCA)(cis-1,4-DACH)] (6), cis,trans,cis-[Pt^IV(OXA)(OH)2(cis-1,4-DACH)] (7), and cis,trans,cis-[Pt^IV(OXA)(DCA)2(cis-1,4-DACH)] (8) were evaluated for their cytotoxic activity towards a panel of human tumor cell lines including cervical (A431), breast (MCF-7), cancers along with a melanoma (A375) and 4 different colon cancer cell lines corresponding to different stages of the disease progression (HCT-15, SW480, CaCo-2, DLD-1). The cytotoxicity was evaluated by means of the MTT test for 72 h treatment with increasing concentrations of the tested compounds.

For another data set, the system named is A431. In words: MTT cytotoxicity assay, 72 h. It is filed as cell-based, human. The settings on record: A431, cervix.
Description: as §1, §2, §3, §5

The test system of another data set is SW480. Kind of data set: MTT cytotoxicity assay, 72 h. It is filed as cell-based, human. The note with it: SW480, colon.
Description: as §1, §2, §3, §5

The test system of the next data set is DLD-1. Kind of data set: MTT cytotoxicity assay, 72 h. It is filed as cell-based, human. The settings on record: DLD-1, colon.
Description: as §1, §2, §3, §5

A further data set concerns A375. Kind of data set: MTT cytotoxicity assay, 72 h. The note with it: A375, skin. It is filed as cell-based, human.
Description: as §1, §2, §3, §5

The test system of a further data set is HCT-15. In words: MTT cytotoxicity assay, 72 h. The class given is cell-based, human. The settings on record: HCT-15, colon.
Description: as §1, §2, §3, §5

The test system of another data set is LoVo colon cancer cells. Kind of data set: MTT cytotoxicity assay, cross-resistance profile. The settings on record: 72 h. It is filed as cell-based, human.
Description: Human breast (MCF-7) and colon (HCT-15, DDL1, SW480 and CaCo-2) carcinoma cell lines along with melanoma (A375) were obtained from the American Type Culture Collection (ATCC, Rockville, Md.). A431 are human cervical carcinoma cells kindly provided by Prof. F. Zunino (Molecular Pharmacology Unit, Experimental Oncology and Molecular Medicine, Istituto Nazionale dei Tumori, Milan, Italy). […] G. Marverti (Dept. of Biomedical Science, University of Modena, Italy). LoVo human colon-carcinoma cell line and its multidrug-resistant sublime (LoVo MDR) were kindly provided by Prof F. Maj one (Department of Biology of Padova University, Italy).
as §2, §3, §4

Several values for one entry are separate records, joined by “and”; a condition that tells them apart may be missing. Identical values can stand only once. Entries after “also recorded” stand apart in the source; their conditions may differ. Marks after values point to notes of the source that are not given here.

Here are results for two compounds from patent US9220705B2, “Method of treating colorectal cancer” (priority 2013, dated 2015).

For orientation: IC50 means the concentration that inhibits the measured activity by half. Read a low IC50 as higher potency.

Consider `[Cl][Pt]1([Cl])[NH][C@@H]2CCCC[C@H]2[NH]1` [Compound 2, [SP-4-2]-dichloro[(1R,2R)-1,2-cyclohexanediamine-N^1,N^2]platinum], for which, in data set [1], the “log Po/w” value is −1.40. In the data set with LoVo-OXP cells, the intracellular platinum accumulation entry is “remarkably decreased; also recorded: decreases remarkably”.
For the compound `N.N.[Cl][Pt][Cl]` [cisplatin, cis-diamminedichloroplatinum(II), reference compound], the “Average tumor weight (mean ± SD, g)” value in data set [2] is 0.199 ± 0.10** g. The “Inhibition of tumor growth (%)” value in [2] was 75% and 74.66%. Moreover, the “R.F. (resistance factor)” value in data set [3] (IC50 LoVo-MDR / IC50 LoVo) was 1.1; in [5] (IC50 LoVo-OXP / IC50 LoVo, cross-resistance with oxaliplatin), 1.7; in data set [6] (IC50 C13* / IC50 2008, cross-resistance with cisplatin), 10.5. Besides, the half-maximal inhibitory concentration (IC50) in [3] (LoVo-MDR, 72 h, MTT) turned out to be 7.53 ± 0.98 µM; in data set [4], 2.26 ± 1.06 µM; in data set [5] (LoVo-OXP, 72 h, MTT), 13.1 ± 2.47 µM; in data set [6] (C13*, 72 h, MTT) it was 23.7 ± 2.42 µM; in the data set with MCF-7 it was 8.37 ± 2.96 µM; in the data set on A431, 1.96 ± 0.84 µM. The IC50 in the data set on SW480 was 7.67 ± 1.34 µM; in the data set on DLD-1, 8.01 ± 2.22 µM; in the data set with A375, 2.06 ± 1.01 µM; with HCT-15, 15.5 ± 2.48 µM; with LoVo colon cancer cells, 7.63 ± 1.53 µM.
